Data taken from publication PMC6491884, “Synthesis and Biological Evaluation of 4β-N-Acetylamino Substituted Podophyllotoxin Derivatives as Novel Anticancer Agents” (Frontiers in Chemistry, 2019).
Read-outs that look alike come from different tables or passages of the source.

Assays:
[1] = system: EC9706 (human esophageal squamous cell carcinoma); test: MTT growth inhibition assay, EC9706; format: cell-based
Experimental: (§1) Target compounds 12a–t were evaluated for in vitro cytotoxicity against four human tumor cell lines, including H460 (non-small cell lung carcinoma), HeLA (human cervical carcinoma), EC9706 (human esophageal squamous cell carcinoma), and T24 (human bladder carcinoma), using HaCaT (human immortalized epidermal cells) as a human non-malignant cell line. Etoposide (3) was included as a positive control. The screening procedure was based on the 3-(4, 5-dimethylthiazol-2-yl)-2, 5-diphenyltetrazoliun bromide (MTT) growth inhibition assay with triplicate experiments, and the results are summarized in Table 1.
(§2) The four human cancer cell lines and a normal human epidermal cell line of the screening panel, including H460 (human non-small cell lung carcinoma), HeLA (human cervical carcinoma), EC9706 (human esophageal squamous cell carcinoma), T24 (human bladder carcinoma), and HaCaT (human immortalized epidermal cells), were purchased from American Type Culture Collection (ATCC, Manassas, VA, U.S.A.). H460, EC9706, and T24 were maintained in RPMI 1640 medium containing 10% Fetal Bovine Serum, 100 units/ml penicillin, 100 μg/ml streptomycin under humidified incubator with 5% CO2 atmosphere at 37°C. HeLA and HaCaT were maintained in Dulbecco′s […] (DMEM) supplemented with 10% Fetal Bovine Serum 100 units/ml penicillin, 100 μg/ml streptomycin in a humidified incubator and 5% CO2 atmosphere at 37°C. Logarithmically growing cells were used for the following experiments.
(§3) The cytotoxicity of the synthesized compounds 12a–t against a panel of human cell lines was determined by the 3-(4,5-dimethylthiazol-2-yl)-2,5-diphenyltetrazoliun bromide (MTT) growth inhibition assay. The five human cell lines were, respectively, plated in 96-well-culture plates at the density of 1 × 10^5 cells per well and incubated for 24 h. Cells were exposed to different concentrations of synthetic podophyllotoxin derivatives for 48 h. MTT was added with a dose of 5 mg/mL in phosphate-buffered saline. After incubation for 4 h at 37°C, the purple formazan crystals were dissolved with […] dimethyl sulfoxide and the absorbance was measured at 570 nm in an ELISA reader. Antiproliferative activity was expressed using the IC50 value defined as the concentration of synthetic podophyllotoxin derivatives inhibiting cell proliferation by 50%. The cell viability ratio was calculated by the following formula: cell viability ratio (%) = OD treated /OD control × 100% (Ma et al., [2014]).

[2] = system: HeLA (human cervical carcinoma); test: MTT growth inhibition assay, HeLA; format: cell-based; conditions: 48 h
Experimental: as §1, §2, §3

[3] = system: T24 (human bladder carcinoma); test: MTT growth inhibition assay, T24; format: cell-based; conditions: T24, 48 h
Experimental: as §1, §2, §3

[4] = system: H460 (human non-small cell lung carcinoma); test: MTT growth inhibition assay, H460; format: cell-based
Experimental: as §1, §2, §3

[5] = system: HaCaT (human immortalized epidermal cells); test: MTT growth inhibition assay, HaCaT normal cells; format: cell-based; conditions: 48 h
Experimental: as §1, §2, §3

[6] = system: four human cancer cell lines (EC-9706, HeLA, T-24 and H460) and a normal human epidermal cell line (HaCaT); test: MTT growth inhibition assay, whole cell line panel; format: cell-based; conditions: read-out: IC50 values across the cell lines
Experimental: as §1, with “1. […]” for “1.”
The cytotoxicity of the synthesized compounds 12a–t against a panel of human cell lines was determined by the 3-(4,5-dimethylthiazol-2-yl)-2,5-diphenyltetrazoliun bromide (MTT) growth inhibition assay. […] After incubation for 4 h at 37°C, the purple formazan crystals were dissolved with […] dimethyl sulfoxide and the absorbance was measured at 570 nm in an ELISA reader. […] The cell viability ratio was calculated by the following formula: cell viability ratio (%) = OD treated /OD control × 100% (Ma et al., [2014]).

[7] = EC9706, 48 h, read-out: IC50 (μM) EC9706
[8] = Homo sapiens, read-out: IC50 (μM) HeLA, MTT, 48 h, n = 3
[9] = read-out: IC50 (μM) T24, MTT, 48 h, n = 3
[10] = NCI-H460, 48 h, read-out: IC50 (μM) H460
[11] = read-out: IC50 (μM) HaCaT, MTT, 48 h, n = 3, normal cell line

Row | IC50 ([1]; EC9706, MTT, 48 h, n = 3, read-out: IC50 (μM) EC9706) | IC50 ([2]; Homo sapiens, MTT, n = 3, read-out: IC50 (μM) HeLA) | IC50 ([3]; MTT, 48 h, n = 3, read-out: IC50 (μM) T24) | IC50 ([4]; NCI-H460, MTT, 48 h, n = 3, read-out: IC50 (μM) H460) | SMILES | IC50 [1, 7] | IC50 [2, 8] | IC50 [3, 9] | IC50 [4, 10] | IC50 [5, 11] | melting point | IC50 [6] | IC50 ([2]; read-out: IC50 (μM) HeLA, MTT, n = 3) | IC50 ([5]; MTT, n = 3, normal cell line, read-out: IC50 (μM) HaCaT) | IC50 ([6]; MTT, span over the cell line panel)
1 | – | – | – | – | COc1cc([C@@H]2c3cc4c(cc3[C@@H](NC(=O)CN3CCCC3)[C@H]3COC(=O)[C@H]23)OCO4)cc(OC)c1O [Compound 12a] | > 50 µM | 12.7 ± 1.38 µM | > 50 µM | 9.61 ± 0.22 µM | 18.2 ± 1.28 µM | 113 to 116 °C | – | – | – | –
2 | – | – | – | – | COc1cc([C@@H]2c3cc4c(cc3[C@@H](NC(=O)CN3CCCCC3)[C@H]3COC(=O)[C@H]23)OCO4)cc(OC)c1O [Compound 12b] | > 50 µM | 5.72 ± 0.74 µM | > 50 µM | 5.91 ± 0.65 µM | 5.17 ± 0.36 µM | 107 to 110 °C | – | – | – | –
3 | – | – | – | – | COc1cc([C@@H]2c3cc4c(cc3[C@@H](NC(=O)CN3CCCCC3)[C@H]3COC(=O)[C@H]23)OCO4)cc(OC)c1OC [Compound 12c] | > 50 µM | > 50 µM | > 50 µM | > 50 µM | 1.89 ± 0.27 µM | 229 to 231 °C | – | – | – | –
4 | – | – | – | – | COc1cc([C@@H]2c3cc4c(cc3[C@@H](NC(=O)CN3CCOCC3)[C@H]3COC(=O)[C@H]23)OCO4)cc(OC)c1O [Compound 12d, 4β-N-[2′′-(morpholino)-acetamide]-4′-demethylpodophyllotoxin] | > 50 µM | > 50 µM | > 50 µM | > 50 µM | > 50 µM | 109 to 111 °C | – | – | – | –
5 | – | – | – | – | COc1cc([C@@H]2c3cc4c(cc3[C@@H](NC(=O)CN3CCOCC3)[C@H]3COC(=O)[C@H]23)OCO4)cc(OC)c1OC [Compound 12e, 4β-N-[(2′′-morpholino)-acetamide]-podophyllotoxin] | > 50 µM | > 50 µM | > 50 µM | > 50 µM | > 50 µM | 119 to 121 °C | – | – | – | –
6 | – | – | – | – | CCCNCC(=O)N[C@@H]1c2cc3c(cc2[C@@H](c2cc(OC)c(O)c(OC)c2)[C@H]2C(=O)OC[C@@H]21)OCO3 [Compound 12f] | 11.7 ± 0.26 µM | 23.9 ± 1.04 µM | 18.6 ± 1.57 µM | 2.54 ± 0.34 µM | 2.59 ± 0.13 µM | 199 to 202 °C | – | – | – | –
7 | – | – | – | – | CCCCNCC(=O)N[C@@H]1c2cc3c(cc2[C@@H](c2cc(OC)c(O)c(OC)c2)[C@H]2C(=O)OC[C@@H]21)OCO3 [Compound 12h] | 22.8 ± 0.32 µM | 1.21 ± 0.31 µM | 12.1 ± 1.28 µM | 1.57 ± 0.37 µM | 1.54 ± 0.29 µM | 115 to 118 °C | 1.2 to 22.8 µM | – | – | –
8 | – | – | – | – | CCCCNCC(=O)N[C@@H]1c2cc3c(cc2[C@@H](c2cc(OC)c(OC)c(OC)c2)[C@H]2C(=O)OC[C@@H]21)OCO3 [Compound 12i] | > 50 µM | > 50 µM | > 50 µM | 37.8 ± 1.01 µM | > 50 µM | 92 to 95 °C | – | – | – | –
9 | – | – | – | – | CCN(CC)CC(=O)N[C@@H]1c2cc3c(cc2[C@@H](c2cc(OC)c(O)c(OC)c2)[C@H]2C(=O)OC[C@@H]21)OCO3 [Compound 12k] | > 50 µM | 45.8 ± 0.71 µM | > 50 µM | > 50 µM | > 50 µM | 106 to 108 °C | – | – | – | –
10 | – | – | – | – | COc1cc([C@@H]2c3cc4c(cc3[C@@H](NC(=O)CN(CCO)CCO)[C@H]3COC(=O)[C@H]23)OCO4)cc(OC)c1O [Compound 12l] | > 50 µM | > 50 µM | > 50 µM | > 50 µM | 4.21 ± 0.17 µM | 212 to 214 °C | – | – | – | –
11 | – | – | – | – | COc1cc([C@@H]2c3cc4c(cc3[C@@H](NC(=O)CN(CCO)CCO)[C@H]3COC(=O)[C@H]23)OCO4)cc(OC)c1OC [Compound 12m] | > 50 µM | 36.4 ± 0.49 µM | > 50 µM | > 50 µM | > 50 µM | 105 to 107 °C | – | – | – | –
12 | – | – | – | – | COc1cc([C@@H]2c3cc4c(cc3[C@@H](NC(=O)CNCc3ccccc3)[C@H]3COC(=O)[C@H]23)OCO4)cc(OC)c1O [Compound 12n] | 40.1 ± 2.43 µM | 6.26 µM | > 50 µM | 16.5 ± 0.39 µM | 13.3 ± 0.8 µM | 141 to 143 °C | – | 6.25 ± 0.21 µM | – | –
13 | – | – | – | – | COc1cc([C@@H]2c3cc4c(cc3[C@@H](NC(=O)CNCc3ccccc3)[C@H]3COC(=O)[C@H]23)OCO4)cc(OC)c1OC [Compound 12o] | 11.3 ± 0.22 µM | 8.55 ± 0.28 µM | > 50 µM | 26.9 ± 0.92 µM | 2.14 ± 0.33 µM | 111 to 113 °C | – | – | – | –
14 | – | – | – | – | COc1cc([C@@H]2c3cc4c(cc3[C@@H](NC(=O)CNc3ccc(F)cc3)[C@H]3COC(=O)[C@H]23)OCO4)cc(OC)c1O [Compound 12p] | > 50 µM | > 50 µM | > 50 µM | 9.75 ± 0.26 µM | > 50 µM | 159 to 162 °C | – | – | – | –
15 | – | – | – | – | COc1ccc(CCNCC(=O)N[C@@H]2c3cc4c(cc3[C@@H](c3cc(OC)c(O)c(OC)c3)[C@H]3C(=O)OC[C@@H]32)OCO4)cc1OC [Compound 12q] | 20.7 ± 0.72 µM | 4.57 ± 0.3 µM | > 50 µM | 3.43 ± 0.17 µM | 3.69 ± 0.19 µM | 229 to 231 °C | – | – | – | –
16 | – | – | – | – | COc1ccc(CCNCC(=O)N[C@@H]2c3cc4c(cc3[C@@H](c3cc(OC)c(OC)c(OC)c3)[C@H]3C(=O)OC[C@@H]32)OCO4)cc1OC [Compound 12r] | > 50 µM | > 50 µM | > 50 µM | > 50 µM | > 50 µM | 106 to 108 °C | – | – | – | –
17 | – | – | – | – | COc1cc([C@@H]2c3cc4c(cc3[C@@H](NC(=O)CNCCc3ccc(O)cc3)[C@H]3COC(=O)[C@H]23)OCO4)cc(OC)c1O [Compound 12s] | 14.3 ± 0.69 µM | 2.27 ± 0.26 µM | 12.7 ± 0.73 µM | 5.94 ± 0.18 µM | 8.67 ± 0.72 µM | 234 to 236 °C | – | – | – | –
18 | – | – | – | – | COc1cc([C@@H]2c3cc4c(cc3[C@@H](NC(=O)CNCCc3ccc(O)cc3)[C@H]3COC(=O)[C@H]23)OCO4)cc(OC)c1OC [Compound 12t] | > 50 µM | > 50 µM | > 50 µM | 42.1 ± 1.21 µM | > 50 µM | 116 to 119 °C | – | – | – | –
19 | > 50 µM | 3.12 ± 0.35 µM | 8.43 ± 0.33 µM | 43.2 ± 1.45 µM | COc1cc([C@@H]2c3cc4c(cc3[C@@H](O[C@@H]3O[C@@H]5CO[C@@H](C)O[C@H]5[C@H](O)[C@H]3O)[C@H]3COC(=O)[C@H]23)OCO4)cc(OC)c1O [Etoposide, etoposide, reference compound] | – | – | – | – | – | – | – | – | 48.7 ± 1.69 µM | 8.4 to 78.2 µM
